# Tests used:
# Format in all cases: in vivo
# [1] = system: Verconica persica (VERPE); test: Pre-emergence herbicidal action against VERPE
# Outline: (§1)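 Application rates ran to 320 g/ha or lower, with several dosages tested on the same weeds. The compound, as wettable powder or emulsion concentrate, is sprayed pre-emergence onto soil over sown seeds; greenhouse growth follows, and effect is rated visually after roughly 3 weeks.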
# Viola tricolor (VIOTR) [2] = test: Post-emergence herbicidal action against VIOTR
# Outline: (§2)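 Rates were 320 g/ha or below, applied as aqueous WP/EC spray with 0.5% additive (600 l/ha) onto one-leaf-stage plants. About 3 weeks later in the greenhouse, damage was scored visually against untreated plants on a 0–100% scale, where 100% means plants died.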
# [3] = system: Verconica persica (VERPE); test: Post-emergence herbicidal action against VERPE
# Outline: as §2
# [4] = system: Abutilon theophrasti (ABUTH); test: Pre-emergence herbicidal action against ABUTH; settings: Dosage column 320 g/ha (title prints 3200 g/ha); scored visually after about 3 weeks; 100% = plants have died
# Outline: as §1
# Lolium rigidum (LOLRI) [5] = test: Pre-emergence herbicidal action against LOLRI
# Outline: as §1
# Setaria viridis (SETVI) [6] = test: Post-emergence herbicidal action against SETVI
# Outline: as §2
# [7] = system: Alopecurus myosuroides (ALOMY); test: Pre-emergence herbicidal action against ALOMY; settings: scored visually after about 3 weeks, 100% = plants have died
# Outline: as §1
# [8] = system: Echinochloa crus-galli (ECHCG); test: Post-emergence herbicidal action against ECHCG
# Outline: as §2
# Avena fatua (AVEFA) [9] = test: Pre-emergence herbicidal action against AVEFA; settings: visual scoring after about 3 weeks vs untreated controls
# Outline: as §1
# [10] = system: Pharbitis purpurea (PHBPU); test: Pre-emergence herbicidal action against PHBPU
# Outline: as §1
# [11] = system: Echinochloa crus-galli (ECHCG); test: Pre-emergence herbicidal action against ECHCG
# Outline: as §1
# [12] = system: Alopecurus myosuroides (ALOMY); test: Post-emergence herbicidal action against ALOMY; settings: visual rating about 3 weeks after treatment vs untreated controls (100% = plants have died, 0% = like control plants)
# Outline: as §2
# [13] = system: Polygonum convolvulus (POLCO); test: Pre-emergence herbicidal action against POLCO
# Outline: as §1
# [14] = system: Matricaria inodora (MATIN); test: Pre-emergence herbicidal action against MATIN
# Outline: as §1
# [15] = system: Amaranthus retroflexus (AMARE); test: Pre-emergence herbicidal action against AMARE; settings: visual scoring after about 3 weeks vs untreated controls
# Outline: as §1
# [16] = system: Amaranthus retroflexus (AMARE); test: Post-emergence herbicidal action against AMARE
# Outline: as §2
# [17] = system: Digitaria sanguinalis (DIGSA); test: Post-emergence herbicidal action against DIGSA; settings: visual rating about 3 weeks after treatment
# Outline: as §2
# [18] = system: Polygonum convolvulus (POLCO); test: Post-emergence herbicidal action against POLCO
# Outline: as §2
# [19] = system: Pharbitis purpurea (PHBPU); test: Post-emergence herbicidal action against PHBPU
# Outline: as §2
# Lolium rigidum (LOLRI) [20] = test: Post-emergence herbicidal action against LOLRI
# Outline: as §2
# Avena fatua (AVEFA) [21] = test: Post-emergence herbicidal action against AVEFA; settings: visual rating about 3 weeks after treatment
# Outline: as §2
# [22] = system: Digitaria sanguinalis (DIGSA); test: Pre-emergence herbicidal action against DIGSA
# Outline: as §1
# [23] = system: Abutilon theophrasti (ABUTH); test: Post-emergence herbicidal action against ABUTH; settings: visual rating about 3 weeks after treatment vs untreated controls (100% = plants have died, 0% = like control plants)
# Outline: as §2
# Setaria viridis (SETVI) [24] = test: Pre-emergence herbicidal action against SETVI
# Outline: as §1
# Viola tricolor (VIOTR) [25] = test: Pre-emergence herbicidal action against VIOTR
# Outline: as §1
# Zea mays (ZEAMX) = settings: 20 g/ha, ZEAMX, effect in comparison to untreated controls
# Outline: (§3)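 Foliar application at the one-leaf stage: WP/EC formulation, 0.5% additive, 600 l/ha water. Greenhouse-grown in sandy loam. Endpoint is visual % injury relative to untreated controls at about 3 weeks.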
# Oryza sativa (ORYSA) = settings: crop plant compatibility, 20 g/ha, effect vs untreated controls
# Outline: as §3
# [26] = 80 g/ha, visual scoring after about 3 weeks vs untreated controls
structure (smiles),measurement,setting,value
COC(=O)COc1nn(-c2ncccc2F)c(-c2cncc(F)c2)c1C1CC1 [Example I-167],Pre-emergence action against VERPE in %,[1]; dosage 80 g/ha,100%
same,Pre-emergence action against VERPE in %,[1]; dosage 320 g/ha,100%
same,Post-emergence action against VIOTR in %,Viola tricolor (VIOTR) [2]; 80 g/ha,80%
same,Post-emergence action against VIOTR in %,Viola tricolor (VIOTR) [2]; 320 g/ha,80%
same,Post-emergence action against VERPE in %,"[3]; 320 g/ha, VERPE",80%
same,Post-emergence action against VERPE in %,[3]; dosage 80 g/ha,80%
same,Pre-emergence action against ABUTH,[4],90%
same,Pre-emergence action against LOLRI in %,Lolium rigidum (LOLRI) [5]; dosage 80 g/ha,100%
same,Pre-emergence action against LOLRI in %,Lolium rigidum (LOLRI) [5]; dosage 320 g/ha,100%
same,Post-emergence action against SETVI in %,Setaria viridis (SETVI) [6]; dosage 320 g/ha,80%
same,Pre-emergence action against ALOMY,[7]; 80 g/ha,90%
same,Pre-emergence action against ALOMY,[7]; 320 g/ha,100%
same,Post-emergence action against ECHCG in %,[8]; dosage 80 g/ha,80%
same,Post-emergence action against ECHCG in %,[8]; dosage 320 g/ha,80%
same,Pre-emergence action against AVEFA in %,Avena fatua (AVEFA) [9]; 80 g/ha,90%
same,Pre-emergence action against AVEFA in %,Avena fatua (AVEFA) [9]; 320 g/ha,90%
same,Pre-emergence action against PHBPU in %,[10]; dosage 80 g/ha,90%
same,Pre-emergence action against PHBPU in %,[10]; dosage 320 g/ha,90%
same,Pre-emergence action against ECHCG in %,[11]; dosage 80 g/ha,100%
same,Pre-emergence action against ECHCG in %,[11]; dosage 320 g/ha,100%
same,Post-emergence action against ALOMY in %,[12]; 80 g/ha,90%
same,Post-emergence action against ALOMY in %,[12]; 320 g/ha,90%
same,Pre-emergence action against POLCO in %,[13]; dosage 80 g/ha,90%
same,Pre-emergence action against POLCO in %,[13]; dosage 320 g/ha,90%
same,Pre-emergence action against MATIN in %,[14]; dosage 80 g/ha,90%
same,Pre-emergence action against MATIN in %,[14]; dosage 320 g/ha,90%
same,Pre-emergence action against AMARE in %,[15]; 80 g/ha,100%
same,Pre-emergence action against AMARE in %,[15]; 320 g/ha,100%
same,Post-emergence action against AMARE in %,"[16]; 80 g/ha, visual rating about 3 weeks after treatment vs untreated controls (100% = plants have died, 0% = like control plants)",80%
same,Post-emergence action against AMARE in %,"[16]; 320 g/ha, visual rating about 3 weeks after treatment",80%
same,Post-emergence action against DIGSA in %,[17]; 80 g/ha,90%
same,Post-emergence action against DIGSA in %,[17]; 320 g/ha,90%
same,Post-emergence action against POLCO in %,[18]; dosage 80 g/ha,80%
same,Post-emergence action against POLCO in %,[18]; dosage 320 g/ha,80%
same,Post-emergence action against PHBPU in %,[19]; dosage 80 g/ha,90%
same,Post-emergence action against PHBPU in %,[19]; dosage 320 g/ha,90%
same,Post-emergence action against LOLRI in %,Lolium rigidum (LOLRI) [20]; dosage 80 g/ha,80%
same,Post-emergence action against LOLRI in %,Lolium rigidum (LOLRI) [20]; dosage 320 g/ha,80%
same,Post-emergence action against AVEFA in %,Avena fatua (AVEFA) [21]; 80 g/ha,80%
same,Post-emergence action against AVEFA in %,Avena fatua (AVEFA) [21]; 320 g/ha,90%
same,Pre-emergence action against DIGSA in %,[22]; [26],100%
same,Pre-emergence action against DIGSA in %,[22]; dosage 320 g/ha,100%
same,Post-emergence action against ABUTH in %,[23]; 80 g/ha,80%
same,Post-emergence action against ABUTH in %,[23]; 320 g/ha,80%
same,Pre-emergence action against SETVI in %,Setaria viridis (SETVI) [24]; dosage 80 g/ha,100%
same,Pre-emergence action against SETVI in %,Setaria viridis (SETVI) [24]; dosage 320 g/ha,100%
same,Pre-emergence action against VIOTR in %,"Viola tricolor (VIOTR) [25]; 320 g/ha, Viola tricolor",100%
same,Pre-emergence action against VIOTR in %,Viola tricolor (VIOTR) [25]; dosage 80 g/ha,100%
CCOC(=O)COc1nn(-c2ncccc2F)c(-c2ccc(F)nc2)c1Br [Example I-39],Pre-emergence action against VERPE in %,[1]; dosage 320 g/ha,100%
same,Post-emergence action against VIOTR in %,Viola tricolor (VIOTR) [2]; 80 g/ha,80%
same,Post-emergence action against VERPE in %,[3]; dosage 80 g/ha,80%
same,Pre-emergence action against ABUTH,[4],90%
same,Pre-emergence action against LOLRI in %,Lolium rigidum (LOLRI) [5]; dosage 320 g/ha,100%
same,Post-emergence action against SETVI in %,Setaria viridis (SETVI) [6]; dosage 80 g/ha,80%
same,Pre-emergence action against ALOMY,[7]; 80 g/ha,100%
same,Pre-emergence action against ALOMY,[7]; 320 g/ha,100%
same,Post-emergence action against ECHCG in %,[8]; dosage 80 g/ha,80%
same,Pre-emergence action against AVEFA in %,Avena fatua (AVEFA) [9]; 320 g/ha,90%
same,Pre-emergence action against ECHCG in %,[11]; dosage 320 g/ha,100%
same,Post-emergence action against ALOMY in %,[12]; 80 g/ha,100%
same,Pre-emergence action against POLCO in %,[13]; dosage 320 g/ha,90%
same,Pre-emergence action against MATIN in %,[14]; dosage 320 g/ha,100%
same,Pre-emergence action against AMARE in %,[15]; 80 g/ha,100%
same,Pre-emergence action against AMARE in %,[15]; 320 g/ha,100%
same,Post-emergence action against ZEAMX in % (crop plant compatibility),Zea mays (ZEAMX),0%
same,Post-emergence action against ORYSA in %,Oryza sativa (ORYSA),0%
same,Post-emergence action against DIGSA in %,[17]; 80 g/ha,90%
same,Post-emergence action against POLCO in %,[18]; dosage 80 g/ha,90%
same,Post-emergence action against PHBPU in %,[19]; dosage 80 g/ha,80%
same,Pre-emergence action against DIGSA in %,[22]; [26],100%
same,Pre-emergence action against DIGSA in %,[22]; dosage 320 g/ha,100%
same,Post-emergence action against ABUTH in %,[23]; 80 g/ha,90%
same,Pre-emergence action against SETVI in %,Setaria viridis (SETVI) [24]; dosage 80 g/ha,100%
same,Pre-emergence action against SETVI in %,Setaria viridis (SETVI) [24]; dosage 320 g/ha,100%
same,Pre-emergence action against VIOTR in %,"Viola tricolor (VIOTR) [25]; 320 g/ha, Viola tricolor",100%
same,Pre-emergence action against VIOTR in %,Viola tricolor (VIOTR) [25]; dosage 80 g/ha,100%

# — patent US20240041042A1, “1-(PYRIDYL)-5-AZINYLPYRAZOLE DERIVATIVES, AND THEIR USE FOR CONTROL OF UNDESIRED PLANT GROWTH” (Bayer Aktiengesellschaft, priority 2020, published 2024)
